Here are results for two compounds from PMC4470815, “Selective Cytotoxicity of 1,3,4-Thiadiazolium Mesoionic Derivatives on Hepatocarcinoma Cells (HepG2)” (PLoS ONE, 2015).

In the assay the target is T1, ABCG2 (Homo sapiens, UniProt Q9UNQ0).
T1 sequence (Q9UNQ0 1-655): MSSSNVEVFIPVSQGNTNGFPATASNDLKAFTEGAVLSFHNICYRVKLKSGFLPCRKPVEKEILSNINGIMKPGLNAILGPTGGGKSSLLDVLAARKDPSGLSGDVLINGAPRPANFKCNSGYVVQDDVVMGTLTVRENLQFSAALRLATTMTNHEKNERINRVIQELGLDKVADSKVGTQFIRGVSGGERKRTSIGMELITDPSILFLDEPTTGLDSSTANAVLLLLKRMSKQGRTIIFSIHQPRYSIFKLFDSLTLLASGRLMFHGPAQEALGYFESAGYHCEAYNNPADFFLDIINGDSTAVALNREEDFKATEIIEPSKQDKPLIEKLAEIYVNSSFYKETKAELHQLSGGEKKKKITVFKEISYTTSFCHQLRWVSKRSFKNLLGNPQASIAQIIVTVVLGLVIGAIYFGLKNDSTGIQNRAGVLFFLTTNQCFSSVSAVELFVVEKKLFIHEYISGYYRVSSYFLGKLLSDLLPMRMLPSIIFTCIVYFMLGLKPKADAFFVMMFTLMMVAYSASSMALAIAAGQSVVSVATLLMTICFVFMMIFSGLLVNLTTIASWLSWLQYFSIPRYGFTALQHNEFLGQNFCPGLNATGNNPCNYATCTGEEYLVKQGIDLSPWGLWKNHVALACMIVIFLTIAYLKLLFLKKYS
The assay can be described thus: inhibition of mitoxantrone efflux in HEK293ABCG2 cells, flow cytometry. Type of assay: cell-based. To be noted: read-out: ABCG2 / EC50. For orientation: Flow cytometry measures light scatter and fluorescence of single cells or particles in a stream.

In the case of `Oc1ccc(/C=C/c2sc(Nc3ccccc3)n[n+]2-c2ccccc2)cc1` [MI-J], the IC50 came out at 8.5 ± 4.8 µM.
Take `O=[N+]([O-])c1ccc(/C=C/c2sc(Nc3ccccc3)n[n+]2-c2ccccc2)cc1` [MI-D, 4-phenyl-5-(4-nitrocinnamoyl)-1,3,4-thiadiazolium-2-phenylamine chloride]: the IC50 was found to be 24.3 ± 9.6 µM.
